Legend:
[1] = test system: rat; test: LD50, i.v., rat; type: in vivo; conditions: meglumine salt solutions 180 mg iodine per ml, 0.8 ml/minute
Procedure: (1) The contrast media were injected in the form of meglumine salt
solutions of 180 mg of iodine per ml at a rate of 0.8 ml/minute into male

[2] = test system: rat; test: ED50 rat, pericerebrally (excitation, grave behavioral anomalies, coma and death over 24 h); type: in vivo; conditions: pericerebral (intracerebral) injection, 0.4 ml, rats about 100 g
Procedure: (2) Male and female rats of about 100 g in weight were injected
intracerebrally between the cheekbone and the occiputal bone through a
natural bone hole of the cranium while being slightly anesthesized with
ether. 0.4 ml injections of contrast media solutions of various
concentrations were used according to the method of Valzelli. The
injection was carried out with a Hamilton syringe 710 N for which the
penetration depth is limited to 10 mm. Depending on the preparation, at
(§1) least 4 doses were tested on 10 animals. The effectiveness criteria used
(§2) are the states of excitation, grave behavioral anomalies, coma and death
(§3) over the period of 24 h.

[3] = distribution coefficient butanol/water, pH 7.4; type: physicochemical; conditions: meglumine salts
Text: By providing the compounds of this invention wherein only one of the two 5,5',-position hydrogen atoms is substituted, new contrast-producing substances are obtained. […] This can be shown by comparing the values of protein binding, compatibility, biliary and renal excretion of the meglumine salts of the conventional agent iodipamide (B) and an agent of this invention, hexane-diacid-1-(3-carboxy-2,4,6-triiodo-anilide)-6-(3-carboxy-5-N-methyl- carbamoyl-2,4,6-triido-anilide) (A).

[4] = test system: rat; test: ED50 rat, intracisternal; type: in vivo; conditions: 200-250 g rat, diluted with 3% mannite solution
Procedure: as §1, §2, §3
(3) With the test equipment essentially the same ss in (2), 200-250 g rat
are injected with contrast media in the cisterna suboccipitalis. The
contrast media were diluted with a 3% mannite solution to adjust the […]

[5] = test system: liver parenchyma; conditions: cited from earlier work
[6] = test system: liver parenchyma; conditions: cited from earlier work; remark: listed apart in the source
[7] = test system: dog liver; test: computer tomography: maximum enrichment of contrast medium in dog liver; type: in vivo, dog (beagle); conditions: 360 mg I/kg, intravenous, meglumine salt solutions 180 mg of I/ml, beagles
Text: The extraordinarily pronounced enrichment of the compounds of this invention is shown in Table 2 listing the maximal enrichment in the liver following intravenous administration of the meglumine salt solutions of the prior art iosefamic acid (D) and of a compound of this invention, 3-oxapentane-diacid-1-([…]-2,4,6-triiodo-N-methylanilide)-5-(3-carboxy-5-N-methylcarbamoyl-2,4,6-triiodo-anilide) (E).
The values were obtained from healthy male and female beagles (Schering, breeder) with weights of 9-14 kg. The meglumine salt solutions contained 180 mg of I/ml.
The investigation of the x-ray density of the liver before administration of the contrast media and every 5 minutes up to 90 minutes thereafter was carried out using a full-body scanner of the EMI CT 5005/12 type, which operates on the basis of the rotation-translation principle. The scanning time was 20 seconds, the tube voltage 120 kv. For an image matrix of 320×320 elements, the standard deviation from the mean value of a normalized water phantom was 1.6% (i.e., +/-8 EU=EMI units). The computer tomograms were analyzed always on the same liver area by means of the analyzer "IVC" of the EMI Co.

Structure (SMILES)	LD50, i.v., rat [1]	rat, pericerebrally ED50 [2]	distribution coefficient, butanol/water, pH 7.4 [3]	rat, intracisternal ED50 [4]	liver concentration for diagnosis improvement, humans [5]	liver concentration for diagnosis improvement, dog [6]	Maximum enrichment in dog liver [7] [EMI units]	time of maximum enrichment in dog liver (min. p. appl.) [7] [min. p. appl.]
O=C(CCCCC(=O)Nc1c(I)cc(I)c(C(=O)O)c1I)Nc1c(I)cc(I)c(C(=O)O)c1I [B, iodipamide]	2.6 g of I/kg	6.35 (5.11-7.44) mg of I/kg	0.278 +/- 0.008	1.07 (0.54-1.83) mg of I per kg				
CNC(=O)c1c(I)c(NC(=O)CCCCC(=O)Nc2c(I)cc(I)c(C(=O)O)c2I)c(I)c(C(=O)O)c1I [Compound A, Hexane-diacid-1-(3-carboxy-2,4,6-triiodo-anilide)-6-(3-carboxy-5-N-methylcarbamoyl-2,4,6-triiodo-anilide)]	5.5 g of I/kg	17.1 (11.8-23.6) mg of I/kg	0.083 +/- 0.001	15.6 (11.5-21.1) mg of I per kg				
CNC(=O)c1c(I)c(NC(=O)CCCCCCCCC(=O)Nc2c(I)c(C(=O)O)c(I)c(C(=O)NC)c2I)c(I)c(C(=O)O)c1I [D, iosefamic acid]					not in humans	still adequate liver concentration for diagnosis improvement in the dog	22.8	80
CNC(=O)c1c(I)c(NC(=O)COCC(=O)N(C)c2c(I)cc(I)c(C(=O)O)c2I)c(I)c(C(=O)O)c1I [E, 3-oxapentane-diacid-1-(3-carboxy-2,4,6-triiodo-N-methylanilide)-5-(3-carboxy-5-N-methylcarbamoyl-2,4,6-triiodo-anilide)]								90

Reference: patent US4395391A, “Unsymmetrically substituted dicarboxylic-acid-bis-(2,4,6-triiodo-anilides), their preparation, and x-ray contrast media containing same” (priority 1980, dated 1983)
